Target: T1, HSA drug site I (Homo sapiens, UniProt P02768)
T1 construct: purchased Sigma-Aldrich A3782
Experiment: Prodan displacement assay
Format: binding
Settings: prodan-HSA 75 μM; 30 min; fluorescence 465 nm emission
Description: A solution of human serum albumin (HSA) (20 ml at 10 mg/ml) in 1×PBS pH 7.4 was prepared. A slurry (10 ml) of Lipidex-1000 in methanol was buffer exchanged into 1×PBS and the buffer decanted from the aqueous slurry. The HSA solution was added to the slurry and the mixture was rotated at room temperature for 30 min. The Lipidex slurry was completely removed from HSA by plunging through a 0.22 μm filter using a 60 ml syringe. Prodan (25 mg) was dissolved in of 40% ethanol, 60% methanol (5 ml at a final concentration is 5 mg/ml). A portion (10 ml) of delipidated HSA (10 mg/ml) was incubated with 666.7 μl of the prodan solution (1:10 molar ratio HSA:prodan), and this mixture was rotated at room temperature for 30 minutes. The HSA-prodan mixture was placed on dry ice and acetone precipitated by adding 40 ml of acetone at −20° C., which was mixed and centrifuged at 3000×g for 10 min to pellet the precipitated HSA-prodan. Two additional washes of cold acetone were used to remove any free prodan. The HSA pellet was brought to 10 ml with PBS and mixed and resuspended.
A 2-fold serial dilution of MG in 1×PBS pH 7.4 was prepared starting from a stock solution of 10 mM. […] An aliquot (300 μl) of each reaction was read using a Gemini XPS Fluorescence Microplate Reader (Molecular Devices) in endpoint mode with 360 nm excitation, 420 nm filter cut-off, and 465 nm emission.

T1 sequence (P02768 25-609): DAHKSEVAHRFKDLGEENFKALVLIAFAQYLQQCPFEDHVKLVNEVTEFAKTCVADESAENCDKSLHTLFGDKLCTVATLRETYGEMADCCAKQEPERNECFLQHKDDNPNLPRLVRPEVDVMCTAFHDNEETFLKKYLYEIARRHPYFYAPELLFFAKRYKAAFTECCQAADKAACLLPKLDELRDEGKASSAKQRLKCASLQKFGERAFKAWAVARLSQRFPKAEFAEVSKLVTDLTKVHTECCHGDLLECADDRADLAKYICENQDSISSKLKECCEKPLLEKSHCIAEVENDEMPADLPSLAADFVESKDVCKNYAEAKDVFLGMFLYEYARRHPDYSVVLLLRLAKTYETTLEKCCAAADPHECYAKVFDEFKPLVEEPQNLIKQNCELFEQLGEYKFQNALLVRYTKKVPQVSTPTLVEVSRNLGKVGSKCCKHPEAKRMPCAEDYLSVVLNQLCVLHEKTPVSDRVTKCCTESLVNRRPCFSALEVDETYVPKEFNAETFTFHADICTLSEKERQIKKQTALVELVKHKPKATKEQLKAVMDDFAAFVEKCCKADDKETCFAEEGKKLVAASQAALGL

SMILES: CC(=O)C=O [MG, Methylglyoxal]
- MG concentrations that displace prodan from prodan-HSA complex: above 300 μM
